Experimental data from PubChem BioAssay (NCI).
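Protocol summary: plate cells (96-well), add compound at 5 concentrations, incubate 48 h, interpolate endpoints linearly. GI50 is the concentration that inhibits growth by half. TGI: total growth inhibition.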

Experiments:
Experiment in all cases: growth of human tumour cells (NCI), 48 h
UO-31 renal = tested on: UO-31 renal
MDA-MB-231 breast = tested on: MDA-MB-231 breast
MCF7 breast = tested on: MCF7 breast
HOP-62 NSCLC = tested on: HOP-62 NSCLC
ACHN renal = tested on: ACHN renal
SK-MEL-2 melanoma = tested on: SK-MEL-2 melanoma
KM12 colon = tested on: KM12 colon
CCRF-CEM leukemia = tested on: CCRF-CEM leukemia
DU-145 prostate = tested on: DU-145 prostate
OVCAR-8 ovarian = tested on: OVCAR-8 ovarian

Structure (SMILES) | GI50 (UO-31 renal) [µM] | TGI (UO-31 renal) [µM] | GI50 (MDA-MB-231 breast) [µM] | TGI (MDA-MB-231 breast) [µM] | GI50 (MCF7 breast) [µM] | TGI (MCF7 breast) [µM] | GI50 (HOP-62 NSCLC) [µM] | TGI (HOP-62 NSCLC) [µM] | GI50 (ACHN renal) [µM] | TGI (ACHN renal) [µM] | TGI (SK-MEL-2 melanoma) [µM] | GI50 (KM12 colon) [µM] | TGI (KM12 colon) [µM] | GI50 (CCRF-CEM leukemia) [µM] | TGI (CCRF-CEM leukemia) [µM] | GI50 (DU-145 prostate) [µM] | TGI (DU-145 prostate) [µM] | GI50 (OVCAR-8 ovarian) [µM] | TGI (OVCAR-8 ovarian) [µM] | GI50 (SK-MEL-2 melanoma) [µM]
CC(C)c1cc(-c2n[nH]c(=O)n2-c2ccc3c(ccn3C)c2)c(O)cc1O | < 0.0218 | > 65.2 | < 0.023 | 7.52 | < 0.0161 | 17.3 | 0.0794 | 31.8 | < 0.0209 | > 43.1 | 25.7 | 0.0221 | 0.062 | < 0.0174 | > 40.5 | < 0.0237 | 23 | < 0.0232 | > 83.7 | 
CCc1nccc2c1nc(-c1nonc1N)n2CC | 9.73 | > 25 | > 25 | > 25 | > 25 | > 25 | > 25 | > 25 | > 23.2 | > 25 | > 25 | > 25 | > 25 | > 25 | > 25 | > 25 | > 25 | > 25 | > 25 | > 25
CCCCCCCCCCC(C(=O)O)C1(C(=O)O)CCC(=O)O1 (stereo unspecified) |  | > 100 |  | > 100 |  | > 100 |  | > 100 |  | > 100 | > 100 |  | > 100 |  | > 100 |  | > 100 |  | > 100 | 
CC1(C)CC(=O)c2c(C(F)(F)F)nn(-c3ccc(C(N)=O)c(NC4CCC(OC(=O)CN)CC4)c3)c2C1 (stereo unspecified) | 0.418 | > 27.1 | 0.112 | 31.5 | < 0.0183 | > 100 | 0.0785 | > 100 | 0.0622 | > 100 | > 100 | 0.0434 | > 100 | 0.0339 | > 100 | 0.0883 | > 100 | 0.0593 | > 100 | 0.0683
Cc1cc(N(CCCl)CCCl)ccc1C=Nc1ccc(-c2csc(Cc3ccccc3)n2)cc1 | 2.61 | 26.8 | 12.3 | 49.5 | 4.66 | 43.3 | 5.72 | > 83 | 5.35 | > 91.3 | 40.3 | 15.8 | 55.6 | 3.01 | > 86.3 | 7.98 | 62.3 | 10.2 | 46.2 | 18.8
CCCC(=O)OC1C(C(O)CO)OC2OC(C)(C)OC21 (stereo unspecified) |  | > 100 |  | > 100 |  | > 100 |  | > 100 |  | > 100 | > 100 |  | > 100 |  | < 3.16 |  | > 100 |  | > 100 | 
COc1cc(/C=C/c2cc(O)c3cc(C(C)=O)c(=O)oc3c2)cc2c1O[C@]1(C)CC[C@@H](O)C(C)(C)[C@H]1C2 |  | > 26.2 | > 26.7 | > 92.3 |  | > 39.3 | > 26.8 | > 79.9 | > 22.9 | > 74 | > 45.8 | > 20.8 | > 39.3 |  | > 29.4 | > 27.8 | > 45.6 | > 28.2 | > 95.1 | 
Cn1cccc1-c1cc(-c2cccs2)nc(N)c1C#N | > 100 | > 100 | > 100 | > 100 | > 100 | > 100 | > 100 | > 100 | > 100 | > 100 | > 100 | > 100 | > 100 | > 100 | > 100 | > 100 | > 100 | > 100 | > 100 | > 100
CC(CCC(=O)O)[C@H]1CCC2[C@@H]3CC[C@@H]4CC(O)CC[C@]4(C)C3CC[C@@]21C (stereo partly specified) | 22.1 | 67.3 | 58.7 | > 100 | 30.2 | > 100 | 37.2 | > 100 | 29.3 | > 100 | 87.1 | 40.5 | > 100 | 21.9 | 85.3 | 44.4 | > 100 | 50 | > 100 | 28.5
COc1ccc2c(c1)/C(=C\c1c(C)nc3sccn13)C(=O)N2 | 0.0147 | 20.3 | < 0.01 | 26.2 |  | > 100 |  | > 100 |  | 69.4 | > 83.7 | < 0.0402 | 25.5 | 0.0979 | > 100 | 0.55 | > 100 | 0.306 |  | 0.162
CC[C@@H](C(=O)O)C1CC[C@H](C)C([C@@H](C)[C@H](O)[C@H](C)C(=O)[C@H](CC)C2O[C@]3(C=C[C@@H](O)[C@]4(CC[C@@](C)(C5CC[C@](O)(CC)[C@H](C)O5)O4)O3)[C@H](C)C[C@@H]2C)O1 (stereo partly specified) | 0.784 | 15.9 | 0.863 | 5.51 | 0.11 | 13.9 | 1.11 | 21.7 | 0.504 | 27.5 | 7.53 | 0.893 | 11.9 | 0.619 | 20.5 | 0.805 | 32.4 | 1.21 | 37.4 | 0.981
O=C1c2cccnc2C(=O)c2nc3cc(N4CCN(C5CC5)CC4)ccc3nc21 | 0.259 | 1.92 | 2.15 | 8.08 | 0.276 | 1.78 | 0.232 | 1.05 | 0.6 | 4.34 | 4.22 | 1.25 | 5.11 | 2.56 | 9.83 | 0.242 | 0.833 | 1.68 | 11.2 | 1.61
O=C(/C=C/c1ccccc1)c1cc(Br)ccc1O |  | 22.9 |  | 42.5 |  | 31.5 |  | 46.3 |  | 28.7 | 40.6 |  | 25.7 |  | 33.9 |  | 28.4 |  | 30.4 | 
Nc1nc2c(c3ncncc13)C(c1cccc(C(F)(F)F)c1)Cc1ncncc1-2 (stereo unspecified) | 7.22 | 85 | 11.1 | 31.3 | 2.96 | > 100 | 7.41 | 47.2 | 7.06 | 41.6 | 29.7 | 4.43 | 35.5 | 4.28 | 23.3 | 3.78 | > 100 | 8.08 | > 100 | 5.36
COc1cc(C2CC(c3ccc4c(c3)OCO4)=NN2C=O)cc(OC)c1OC (stereo unspecified) | 3.81 | > 100 | > 25.3 | > 100 | 1.34 | > 100 | 2.81 | > 100 | 3.53 | > 100 | > 100 | 1.17 | > 100 | 2.48 | > 100 | 2.63 | > 26.1 | > 23.3 | > 100 | 9.46
COc1cccc2c1c(C(=O)C(=O)Nc1cc(C)no1)cn2Cc1ccc(F)cc1 | 8.77 | > 100 | 5.41 | > 100 | 3.27 | > 90.6 | > 35.9 | > 100 | 15.4 | > 100 | > 87.3 | 2.19 | > 44.4 | 6.24 | > 100 | 19.4 | > 100 | 25.2 | > 100 | 8.48
COc1ccc2c(c1)cn1c3ccc(O)cc3nc(N)c21 | 0.148 | 10.3 | 0.957 | 5.56 | 0.615 | 4.99 | 0.205 | 8.18 | 0.109 | 5.18 | 5.14 | 0.615 | 5.7 | 0.163 | > 50.9 | 0.24 | 5.43 | 0.375 | 4.92 | 0.27
COc1ccc(-c2c3c(N)nc(-c4ccncc4)nc3nc3c2c(C)nn3-c2ccccc2)cc1 | 50.7 | > 100 | 3.71 | 46.5 | 4.28 | > 100 | 2.41 | 37.6 | 4.58 | > 100 | > 100 | 8.55 | > 100 | 5.93 | > 100 | 7.39 | > 100 | 7.11 | > 100 | 31
COc1cc2c(c(OC)c1)C1c3ccccc3NC(=O)N1CC2 (stereo unspecified) | 2.81 | 85.4 | 3.98 | > 100 | 3.13 | > 100 | 3.28 | > 100 | 5.48 | > 100 | 91.4 | 4.95 | > 100 | 2.67 | > 100 | 4.84 | > 100 | 5.01 | > 100 | 2.85
COc1cccc(-n2ncc3c(N/N=C/c4ccc(C(=O)NCCN(C)C)cc4)ncnc32)c1 | 1.64 | 5.88 | 3.4 | 7.23 | 3.02 | 6.82 | 4.14 | 7.81 | 1.08 | 4.86 | > 13.9 | 1.36 | 4.67 | 4.17 | 11.2 | 3.18 | 6.57 | 4.19 | 9.27 | > 9.86
Cn1cc(-c2ccc3occ(-c4cccc(-c5ccncc5)c4)c3n2)cn1 | 1.46 | > 100 | 1.62 | > 100 | 0.419 | > 100 | 0.815 | > 100 | 0.8 | > 100 | > 100 | 0.358 | > 100 | 0.923 | > 100 | 2.65 | > 100 | 1.31 | > 100 | 0.758
CN(C)CCCNC(CC#N)CCC#N (stereo unspecified) |  | > 10 |  | > 10 |  | > 10 |  | > 10 |  | > 10 | > 10 |  | > 10 |  | > 10 |  | > 10 |  | > 10 | 
O=C1CC(c2ccc(O)cc2)C2(O1)C(=O)OC(C(O)CO)C2O (stereo unspecified) |  | > 100 |  | > 100 |  | > 100 |  | > 100 |  | > 100 | > 100 |  | > 100 |  | > 100 |  | > 100 |  | > 100 | 
Cc1ccccc1[P+](Cc1ccccc1)(c1ccccc1)c1ccccc1 | 14.2 | 69.2 | 2.06 | 28 | 0.89 | > 100 | 4.34 | > 100 | 8.3 | > 100 | 6.65 | 1.12 | 15.1 | 2.1 | 33.5 | 3.69 | > 100 | 1.92 | 13.2 | 2.67
O=c1cc(-c2ccccc2)[nH]c2ccccc12 | 3.28 | > 100 | 4.09 | > 62.1 | 0.383 | > 100 | 4.85 | > 100 | 0.858 | > 100 | > 100 | 0.464 | > 100 | 0.738 | > 100 | 0.829 | > 71.4 | 4.18 | > 100 | > 100
COC(=O)[C@@]1(C)CC[C@]2(C)CC[C@]3(C)C4=CC=C5C(=CC(=O)C(O)=C5C)[C@]4(C)[C@@H](O)C[C@@]3(C)[C@@H]2C1 | 5.8 | 16.2 | 10.2 | 21.8 | 11.3 | 23.9 | 13.3 | 25.9 | 3.8 | 13.4 | 23.2 | 13 | 25.1 | 2.73 | 11.9 | 12.3 | 23.3 | 14.8 | 28.4 | 11.2
